Data set [1] concerns asthma patients. Set-up: method as in PMID 31371445, PMID 10197050. To be noted: clinical trial for asthma, abandoned; cited from earlier work.
Data set [2] has as its target T1, Tryptase from a human lung (Homo sapiens, UniProt P20231).
T1 construct: Tryptase from a human lung was purchased from Sigma-Aldrich; purchased Sigma-Aldrich; host or cells: human lung tissue
Description: Measurement of inhibitory activity against tryptase (chromogenic substrate, absorbance at 415 nm). Type of data set: biochemical. Conditions: for IC50: inhibitor alone, 30 min preincubation, mean ± SE (n = 3). How it is done: (§1) Tryptase from a human lung was purchased from Sigma-Aldrich (St. Louis, MO, USA). The activity of tryptase was measured in 100 mM Tris-HCl buffer, pH 8.0, 100 mM glycerol, 0.02 mg/mL heparin sodium salt and 167 µM N-(p-Tosyl)-Gly-Pro-Lys 4-nitroanilide acetate salt (Sigma-Aldrich) as a substrate. Prior to addition of the substrate, the inhibitor was preincubated with the enzyme for 30 min at room temperature to allow the establishment of the enzyme–inhibitor complex. The substrate was then added, and after incubation for 30 min at 37 °C, the enzyme activity was measured from the increase in absorbance at 415 nm. The assays were performed using a 384-well microplate (CELLSTAR 384-well 781182, Greiner Bio-One, Kremsmünster, Austria) and absorbance was measured using a Powerscan 4 plate reader (DS pharma biomedical, Osaka, Japan). The inhibition ratio was calculated using the following equation: inhibition ratio %=1−AE+S+I−AS−AI+Ablank/AE+S−AS×100
A(x): absorbance intensity (415 nm); E: enzyme; S: substrate; I: inhibitor; blank: buffer.
(§2) The inhibitory activity against tryptase and the trypsin of leupeptin and PB8GG’ were measured at 0.1–100 µM, along with that of ellagitannins (carpinin B or carpinin E) isolated by our group at 20–50 µM. The inhibitory activity of a combination of various concentrations of PB8GG’ and 50 µM ellagitannins was also assayed.
(§3) Drawing curves of the inhibition and calculation of IC50 were performed by GraphPad Prism (Version 9.5.1).

For data set [3], the target named is T2, Trypsin from a hog pancreas (Sus scrofa, UniProt P00761).
T2 construct: Trypsin from a hog pancreas was purchased from Nacalai Tesque; purchased Nacalai Tesque; host or cells: hog pancreas
T2 sequence (P00761 9-231): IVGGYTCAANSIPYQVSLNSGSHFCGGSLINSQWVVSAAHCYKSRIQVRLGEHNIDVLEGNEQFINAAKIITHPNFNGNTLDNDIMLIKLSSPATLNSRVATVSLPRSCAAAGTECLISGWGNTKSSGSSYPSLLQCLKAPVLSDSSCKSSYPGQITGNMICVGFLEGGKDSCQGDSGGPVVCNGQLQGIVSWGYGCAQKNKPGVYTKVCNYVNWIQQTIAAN
The data set can be described thus: Measurement of inhibitory activity against trypsin (Bz-L-Arg-pNA substrate, absorbance at 415 nm). The data set is classed as biochemical. As to the method: Trypsin from a hog pancreas was purchased from Nacalai Tesque, Kyoto, Japan. The activity of trypsin was measured in 200 mM Tris-HCl buffer, pH 7.8, 20 mM CaCl2 and 385 µM Benzoyl-L-arginine p-nitroanilide monohydrochloride (Bz-L-Arg-pNA·HCl) (Peptide Institute, Osaka, Japan) as a substrate. Prior to addition of the substrate, the inhibitor was preincubated with the enzyme for 10 min at room temperature to allow the establishment of the enzyme–inhibitor complex. The substrate was then added, and after incubation for 60 min at 37 °C, the enzyme activity was measured from the increase in absorbance at 415 nm. The assays were performed using a 384-well microplate and absorbance was measured using a Powerscan 4 plate reader.
as §2, §3

Data set [4] deals with Tryptase from a human lung. The data set can be described thus: Kinetic analysis of tryptase inhibition (Lineweaver-Burk plot, Morrison's formula). Type of data set: biochemical. As to the method: as §1
Ki^app was calculated using the Morrison’s formula with GraphPad Prism. The mean value of Km from the kinetic analysis (described in next Section 4.5) was substituted as a constant in the formula.
For kinetic studies of tryptase, inhibition assays were carried out as described in the preceding paragraph. […] The kinetic parameters were calculated by curve fitting using GraphPad Prism.

As usually defined, the IC50 is the point on the concentration scale where inhibition reaches its midpoint.

T1 sequence (P20231 31-275): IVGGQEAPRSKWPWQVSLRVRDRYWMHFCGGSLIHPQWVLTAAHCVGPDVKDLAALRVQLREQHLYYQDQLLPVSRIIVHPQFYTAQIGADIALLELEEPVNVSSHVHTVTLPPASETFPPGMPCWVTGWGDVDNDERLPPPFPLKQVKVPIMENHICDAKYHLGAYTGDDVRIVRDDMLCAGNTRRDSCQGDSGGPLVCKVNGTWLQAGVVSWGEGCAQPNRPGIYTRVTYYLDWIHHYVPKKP

As to `NC(=O)[C@@H]1CCCN1C(=O)[C@H](CCCN=C(N)N)NC(=O)c1ccc2ccccc2c1O` [APC-366], the “adverse effect in treated patients” value in data set [1] is “caused bronchospasms”.
As for `O=C(O[C@@H]1Cc2c(cc(O)c(C3c4c(O)cc(O)cc4O[C@H](c4ccc(O)c(O)c4)[C@H]3OC(=O)c3cc(O)c(O)c(O)c3)c2O)O[C@@H]1c1ccc(O)c(O)c1)c1cc(O)c(O)c(O)c1` (stereo partly drawn) [PB8GG’, procyanidin B8 3,3′-di-O-gallate], the “inhibition of tryptase activity” value is “clearly inhibited” in data set [2] (at 5 μM) and “very weakly inhibited” in data set [2] (at the dose of 1–3 μM). The IC50 in data set [2] turned out to be 7.78 ± 0.17 µM. For the same molecule, in data set [3] (tested at 0.1–100 µM), the “inhibitory activity against trypsin” value was “little inhibitory activity”. Moreover, the “mode of inhibition of tryptase” value in data set [4] (Lineweaver–Burk plot) is recorded as “mixed-type non-competitive”. Also, in data set [4] (Morrison's formula, GraphPad Prism, read-out: inhibition constant Ki app), the Ki was found to be 5.02 ± 0.99 µM.
`CC(=O)N[C@@H](CC(C)C)C(=O)N[C@@H](CC(C)C)C(=O)N[C@H](C=O)CCCNC(=N)N` [leupeptin, reference compound]: the IC50 is 14.9 ± 1.25 µM in data set [2] and 8.4 ± 0.31 µM in data set [3] (10 min preincubation, mean ± SE (n = 3)).
